In patent publication US9115143B2, “Substituted indole derivatives as gamma secretase modulators” (Janssen Pharmaceuticals, Inc., priority 2011, dated 2015):

Key:
[1] = system: Aβtotal; assay: Screening for γ-secretase-modulating activity: Aβtotal in supernatant of SKNBE2 cells carrying hAPP 695 wild type (Alphalisa); assay type: cell-based, human; settings: overnight incubation, Alphalisa on supernatant
Procedure, shortened: (§1)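 SKNBE2 human neuroblastoma cells expressing wild-type hAPP 695 (10^4/well) were incubated overnight at 37 °C, 5% CO2 with compound at several concentrations. Supernatant Aβ42 and Aβtotal measured by AlphaLISA sandwich immunoassays; IC50 from 4-parameter fit of percent of untreated control versus log concentration.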

[2] = system: Aβ42; assay: Screening for γ-secretase-modulating activity: Aβ42 in supernatant of SKNBE2 cells carrying hAPP 695 wild type (Alphalisa); assay type: cell-based, human; settings: overnight incubation, Alphalisa on supernatant
Procedure, shortened: as §1

[3] = Homo sapiens, SKNBE2, SKNBE2 human neuroblastoma cells carrying hAPP 695 wild type
[4] = SKNBE2 human neuroblastoma cells carrying hAPP 695 wild type

| Structure (SMILES) | IC50 [1, 3] | IC50 [2, 4] | melting point | IC50 [1, 4] | IC50 [2, 3] |
| --- | --- | --- | --- | --- | --- |
| Cc1cc(F)ccc1C1OCCn2nc(-c3cc4cc(C#N)ccc4[nH]3)nc21 (single isomer, unassigned) [Compound 97, 2-[8-(4-fluoro-2-methylphenyl)-5,6-dihydro-8H-[1,2,4]triazolo[5,1-c][1,4]oxazin-2-yl]-1H-indole-5-carbonitrile] | > 10000 nM | 219 nM | 255 °C | – | – |
| Cc1cc(F)ccc1C1OCCn2nc(-c3cc4cc(C#N)ccc4[nH]3)nc21 (single isomer, unassigned) [Compound 98, 2-[8-(4-fluoro-2-methylphenyl)-5,6-dihydro-8H-[1,2,4]triazolo[5,1-c][1,4]oxazin-2-yl]-1H-indole-5-carbonitrile] | – | 5500 nM | 253.5 °C | > 10000 nM | – |
| Cc1cn(-c2ccc3[nH]c(-c4nc5n(n4)CCOC5c4ccc(F)cc4C)cc3c2)cn1 (single isomer, unassigned) [Compound 109, 8-(4-fluoro-2-methylphenyl)-5,6-dihydro-2-[5-(4-methyl-1H-imidazol-1-yl)-1H-indol-2-yl]-8H-[1,2,4]triazolo[5,1-c][1,4]oxazine] | > 10000 nM | 537 nM | 278.9 °C | – | – |
| Cc1cn(-c2ccc3[nH]c(-c4nc5n(n4)CCOC5c4ccc(F)cc4C)cc3c2)cn1 (single isomer, unassigned) [Compound 110, 8-(4-fluoro-2-methylphenyl)-5,6-dihydro-2-[5-(4-methyl-1H-imidazol-1-yl)-1H-indol-2-yl]-8H-[1,2,4]triazolo[5,1-c][1,4]oxazine] | – | 36 nM | 278 °C | > 10000 nM | – |
| Cc1c(F)cccc1C1OCCn2nc(-c3cc4cc(C#N)ccc4[nH]3)nc21 (centres unmarked) [Compound 1, 2-[8-(3-fluoro-2-methylphenyl)-5,6-dihydro-8H-[1,2,4]triazolo[5,1-c][1,4]oxazin-2-yl]-1H-indole-5-carbonitrile] | > 10000 nM | – | 225.2 °C | – | 295 nM |
| COc1ccccc1C1CCCn2nc(-c3cc4cc(C#N)ccc4[nH]3)nc21 (centres unmarked) [Compound 19, 2-[5,6,7,8-tetrahydro-8-(2-methoxyphenyl)[1,2,4]triazolo[1,5-a]pyridin-2-yl]-1H-indole-5-carbonitrile] | > 10000 nM | – | 139.6 °C | – | 661 nM |
| COc1c(C#N)ccc2[nH]c(-c3cn4c(n3)C(c3cc(C(F)(F)F)ccc3F)OCC4)cc12 (centres unmarked) [Compound 128, 2-[8-[2-fluoro-5-(trifluoromethyl)phenyl]-5,6-dihydro-8H-imidazo[2,1-c][1,4]oxazin-2-yl]-4-methoxy-1H-indole-5-carbonitrile] | > 10000 nM | 60 nM | – | – | – |
| COc1c(C#N)ccc2[nH]c(-c3nc4n(n3)CCOC4c3c(C)cccc3F)cc12 (centres unmarked) [Compound 129, 2-[8-(2-fluoro-6-methylphenyl)-5,6-dihydro-8H-[1,2,4]triazolo[5,1-c][1,4]oxazin-2-yl]-4-methoxy-1H-indole-5-carbonitrile] | > 10000 nM | 46 nM | – | – | – |
| COc1c(C#N)ccc2[nH]c(-c3nc4n(n3)CCOC4c3ccccc3Cl)cc12 (centres unmarked) [Compound 130, 2-[8-(2-chlorophenyl)-5,6-dihydro-8H-[1,2,4]triazolo[5,1-c][1,4]oxazin-2-yl]-4-methoxy-1H-indole-5-carbonitrile] | > 10000 nM | 79 nM | – | – | – |
| COc1c(C#N)ccc2[nH]c(-c3nc4n(n3)CCOC4c3ccccc3Cl)cc12 (centres unmarked) [Compound 140, 2-[8-(2-chlorophenyl)-5,6-dihydro-8H-[1,2,4]triazolo[5,1-c][1,4]oxazin-2-yl]-4-methoxy-1H-indole-5-carbonitrile] | – | 1150 nM | – | > 10000 nM | – |
| COc1c(C#N)ccc2[nH]c(-c3cn4c(n3)C(c3ccc(F)c(Cl)c3)OCC4)cc12 (centres unmarked) [Compound 143, 2-[8-(3-chloro-4-fluorophenyl)-5,6-dihydro-8H-imidazo[2,1-c][1,4]oxazin-2-yl]-4-methoxy-1H-indole-5-carbonitrile] | > 10000 nM | 186 nM | – | – | – |
| COc1c(C#N)ccc2[nH]c(-c3nc4n(n3)CCOC4c3ccc(F)c(Cl)c3)cc12 (centres unmarked) [Compound 144, 2-[8-(3-chloro-4-fluorophenyl)-5,6-dihydro-8H-[1,2,4]triazolo[5,1-c][1,4]oxazin-2-yl]-4-methoxy-1H-indole-5-carbonitrile] | > 10000 nM | 214 nM | – | – | – |
| COCc1ccccc1C1OCCn2cc(-c3cc4c(OC)c(C#N)ccc4[nH]3)nc21 (centres unmarked) [Compound 145, 2-[5,6-dihydro-8-[2-(methoxymethyl)phenyl]-8H-imidazo[2,1-c][1,4]oxazin-2-yl]-4-methoxy-1H-indole-5-carbonitrile] | – | 110 nM | – | > 10000 nM | – |
| COCc1ccccc1C1OCCn2cc(-c3cc4c(OC)c(C#N)ccc4[nH]3)nc21 (centres unmarked) [Compound 146, 2-[5,6-dihydro-8-[2-(methoxymethyl)phenyl]-8H-imidazo[2,1-c][1,4]oxazin-2-yl]-4-methoxy-1H-indole-5-carbonitrile] | – | 6170 nM | – | > 10000 nM | – |
| COc1c(C#N)ccc2[nH]c(-c3cn4c(n3)C(c3cc(F)ccc3C)OCC4)cc12 (centres unmarked) [Compound 151, 2-[8-(5-fluoro-2-methylphenyl)-5,6-dihydro-8H-imidazo[2,1-c][1,4]oxazin-2-yl]-4-methoxy-1H-indole-5-carbonitrile] | > 10000 nM | 54 nM | – | – | – |
| COc1c(C#N)ccc2[nH]c(-c3cn4c(n3)C(c3c(F)cccc3C(F)(F)F)OCC4)cc12 (centres unmarked) [Compound 152, 2-[8-[2-fluoro-6-(trifluoromethyl)phenyl]-5,6-dihydro-8H-imidazo[2,1-c][1,4]oxazin-2-yl]-4-methoxy-1H-indole-5-carbonitrile] | – | 3800 nM | – | > 10000 nM | – |
| COc1c(C#N)ccc2[nH]c(-c3cn4c(n3)C(c3ccc(F)c(Cl)c3)OCC4)cc12 (centres unmarked) [Compound 155, 2-[8-(3-chloro-4-fluorophenyl)-5,6-dihydro-8H-imidazo[2,1-c][1,4]oxazin-2-yl]-4-methoxy-1H-indole-5-carbonitrile] | – | 1480 nM | – | > 10000 nM | – |
| COc1c(C#N)ccc2[nH]c(-c3nc4n(n3)CCOC4c3c(F)cccc3C(F)(F)F)cc12 (centres unmarked) [Compound 162, 2-[8-[2-fluoro-6-(trifluoromethyl)phenyl]-5,6-dihydro-8H-[1,2,4]triazolo[5,1-c][1,4]oxazin-2-yl]-4-methoxy-1H-indole-5-carbonitrile] | – | 6920 nM | – | > 10000 nM | – |
| COc1c(C#N)ccc2[nH]c(-c3nc4n(n3)CCOC4c3c(F)cccc3C(F)(F)F)cc12 (centres unmarked) [Compound 163, 2-[8-[2-fluoro-6-(trifluoromethyl)phenyl]-5,6-dihydro-8H-[1,2,4]triazolo[5,1-c][1,4]oxazin-2-yl]-4-methoxy-1H-indole-5-carbonitrile] | – | 52 nM | – | > 10000 nM | – |
| COc1c(C#N)ccc2[nH]c(-c3cn4c(n3)C(c3cc(C(F)(F)F)ccc3F)OCC4)cc12 (centres unmarked) [Compound 165, 2-[8-[2-fluoro-5-(trifluoromethyl)phenyl]-5,6-dihydro-8H-imidazo[2,1-c][1,4]oxazin-2-yl]-4-methoxy-1H-indole-5-carbonitrile] | – | 4360 nM | – | > 10000 nM | – |
| Cc1cc(F)ccc1C1OCCn2nc(-c3cc4c(OC(C)C)c(C#N)ccc4[nH]3)nc21 (centres unmarked) [Compound 166, 2-[8-(4-fluoro-2-methylphenyl)-5,6-dihydro-8H-[1,2,4]triazolo[5,1-c][1,4]oxazin-2-yl]-4-(1-methylethoxy)-1H-indole-5-carbonitrile] | > 10000 nM | – | – | – | 347 nM |
| COCCOc1c(C#N)ccc2[nH]c(-c3cn4c(n3)C(c3ccc(F)cc3C)OCC4)cc12 (centres unmarked) [Compound 167, 2-[8-(4-fluoro-2-methylphenyl)-5,6-dihydro-8H-imidazo[2,1-c][1,4]oxazin-2-yl]-4-(2-methoxyethoxy)-1H-indole-5-carbonitrile] | > 10000 nM | – | – | – | 257 nM |
| Cc1cc(F)ccc1C1OCCn2nc(-c3cc4c(OCC(F)F)c(C#N)ccc4[nH]3)nc21 (centres unmarked) [Compound 168, 4-(2,2-difluoroethoxy)-2-[8-(4-fluoro-2-methylphenyl)-5,6-dihydro-8H-[1,2,4]triazolo[5,1-c][1,4]oxazin-2-yl]-1H-indole-5-carbonitrile] | > 10000 nM | – | – | – | 245 nM |
| CCOc1c(C#N)ccc2[nH]c(-c3nc4n(n3)CCOC4c3ccc(F)cc3C)cc12 (centres unmarked) [Compound 171, 4-ethoxy-2-[8-(4-fluoro-2-methylphenyl)-5,6-dihydro-8H-[1,2,4]triazolo[5,1-c][1,4]oxazin-2-yl]-1H-indole-5-carbonitrile] | > 10000 nM | – | – | – | 151 nM |
| Cc1cc(F)ccc1C1CCCn2nc(-c3nc4cc(-n5cncc5C)ccc4[nH]3)nc21 (centres unmarked) [Compound 177, 8-(4-fluoro-2-methylphenyl)-5,6,7,8-tetrahydro-2-[5-(5-methyl-1H-imidazol-1-yl)-1H-benzimidazol-2-yl]-[1,2,4]triazolo[1,5-a]pyridine] | > 10000 nM | – | – | – | 2510 nM |
| Cc1cn(-c2ccc3[nH]c(-c4nc5n(n4)CCCC5c4ccc(F)cc4C)nc3c2)cn1 (centres unmarked) [Compound 179, 8-(4-fluoro-2-methylphenyl)-5,6,7,8-tetrahydro-2-[5-(4-methyl-1H-imidazol-1-yl)-1H-benzimidazol-2-yl]-[1,2,4]triazolo[1,5-a]pyridine] | > 10000 nM | 407 nM | – | – | – |
| COc1c(C#N)ccc2[nH]c(-c3cn4c(n3)COCC4(C)c3cc(C(F)(F)F)ccc3F)cc12 (centres unmarked) [Compound 183, 2-[5-[2-fluoro-5-(trifluoromethyl)phenyl]-5,6-dihydro-5-methyl-8H-imidazo[2,1-c][1,4]oxazin-2-yl]-4-methoxy-1H-indole-5-carbonitrile] | > 10000 nM | – | – | – | 2880 nM |
| COc1c(C#N)ccc2[nH]c(-c3cn4c(n3)COCC4c3ccccc3)cc12 (centres unmarked) [Compound 184, 2-(5,6-dihydro-5-phenyl-8H-imidazo[2,1-c][1,4]oxazin-2-yl)-4-methoxy-1H-indole-5-carbonitrile] | 5370 nM | – | – | – | 3090 nM |
